One experiment addresses CDK12/CycK (Homo sapiens, UniProt Q9NYV4). As to the kind of experiment: CDK12/CycK high ATP kinase assay (TR-FRET, 2 mM ATP). The class given is biochemical. The following applies: 2 mM ATP (high ATP); median; read-out: CDK12/CyclinK, 2 mM ATP (high ATP), IC50-[mol/l] (median). The procedure, abridged: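 Read-out is TR-FRET (Eu-anti-rabbit IgG, anti-phospho-c-Myc Ser62 antibody, streptavidin-XL665) after EDTA stop. Reaction ran 60 min at 22 °C using 1 µM biotin-peptide and high ATP (2 mM) with roughly 0.75 nM recombinant CDK12/CycK, after 15 min compound pre-binding; normalised emission ratios yield IC50.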
In general terms: In TR-FRET formats the signal depends on donor and acceptor labels being close together.

Experiment [1] addresses T1, CDK12 (nuclear staining in CAL-120 cells) (Homo sapiens, UniProt Q9NYV4).
T1 construct: endogenous in cells; host or cells: CAL-120 human breast cancer cells (DSMZ ACC 459)
As to the kind of experiment: CDK12 nuclear protein level: immunofluorescence/high content analysis (CAL-120). The class given is cell-based. The following applies: for DC50: CAL-120 cells, 24 h, immunofluorescence, 50% reduction of nuclear CDK12 staining intensity, median, read-out: CDK12 degradation IF, DC50- [mol/l] (median); for (IC50 CDK12 high ATP) to (Degradation DC50 CDK12) ratio: ratio of IC50 CDK12 high ATP kinase assay to DC50 CDK12 degradation (IF, CAL-120). The essentials:
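DC50 is the degrader concentration that halves nuclear CDK12 immunofluorescence relative to controls, measured by high-content imaging. CAL-120 cells were exposed to compound for 24 h at 37 °C before PFA fixation, and signal was normalized to DMSO and control wells.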

CDK12/CycK, sequence (Q9NYV4 with tags, fused parts or gaps): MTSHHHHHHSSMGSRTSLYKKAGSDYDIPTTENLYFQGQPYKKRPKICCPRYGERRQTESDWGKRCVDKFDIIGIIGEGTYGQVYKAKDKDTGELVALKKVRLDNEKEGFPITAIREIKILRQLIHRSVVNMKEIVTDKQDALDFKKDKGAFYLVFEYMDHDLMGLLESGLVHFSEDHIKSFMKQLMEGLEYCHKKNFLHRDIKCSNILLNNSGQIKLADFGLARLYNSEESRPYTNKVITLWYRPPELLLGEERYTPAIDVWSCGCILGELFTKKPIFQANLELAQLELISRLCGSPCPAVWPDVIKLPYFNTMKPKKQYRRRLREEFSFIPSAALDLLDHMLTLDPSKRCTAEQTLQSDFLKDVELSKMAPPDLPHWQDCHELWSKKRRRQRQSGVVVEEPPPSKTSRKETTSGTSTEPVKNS
CDK12/CycK, sequence (O75909 1-300 partner limits assumed): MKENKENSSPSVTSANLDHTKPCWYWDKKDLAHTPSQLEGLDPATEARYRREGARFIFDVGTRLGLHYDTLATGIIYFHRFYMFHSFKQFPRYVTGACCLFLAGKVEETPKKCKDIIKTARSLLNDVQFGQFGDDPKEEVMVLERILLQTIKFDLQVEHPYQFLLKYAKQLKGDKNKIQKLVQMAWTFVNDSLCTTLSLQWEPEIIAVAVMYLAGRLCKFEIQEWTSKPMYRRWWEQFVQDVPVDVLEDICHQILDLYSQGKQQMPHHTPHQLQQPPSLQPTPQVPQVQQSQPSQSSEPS
T1 sequence (Q9NYV4 whole entry): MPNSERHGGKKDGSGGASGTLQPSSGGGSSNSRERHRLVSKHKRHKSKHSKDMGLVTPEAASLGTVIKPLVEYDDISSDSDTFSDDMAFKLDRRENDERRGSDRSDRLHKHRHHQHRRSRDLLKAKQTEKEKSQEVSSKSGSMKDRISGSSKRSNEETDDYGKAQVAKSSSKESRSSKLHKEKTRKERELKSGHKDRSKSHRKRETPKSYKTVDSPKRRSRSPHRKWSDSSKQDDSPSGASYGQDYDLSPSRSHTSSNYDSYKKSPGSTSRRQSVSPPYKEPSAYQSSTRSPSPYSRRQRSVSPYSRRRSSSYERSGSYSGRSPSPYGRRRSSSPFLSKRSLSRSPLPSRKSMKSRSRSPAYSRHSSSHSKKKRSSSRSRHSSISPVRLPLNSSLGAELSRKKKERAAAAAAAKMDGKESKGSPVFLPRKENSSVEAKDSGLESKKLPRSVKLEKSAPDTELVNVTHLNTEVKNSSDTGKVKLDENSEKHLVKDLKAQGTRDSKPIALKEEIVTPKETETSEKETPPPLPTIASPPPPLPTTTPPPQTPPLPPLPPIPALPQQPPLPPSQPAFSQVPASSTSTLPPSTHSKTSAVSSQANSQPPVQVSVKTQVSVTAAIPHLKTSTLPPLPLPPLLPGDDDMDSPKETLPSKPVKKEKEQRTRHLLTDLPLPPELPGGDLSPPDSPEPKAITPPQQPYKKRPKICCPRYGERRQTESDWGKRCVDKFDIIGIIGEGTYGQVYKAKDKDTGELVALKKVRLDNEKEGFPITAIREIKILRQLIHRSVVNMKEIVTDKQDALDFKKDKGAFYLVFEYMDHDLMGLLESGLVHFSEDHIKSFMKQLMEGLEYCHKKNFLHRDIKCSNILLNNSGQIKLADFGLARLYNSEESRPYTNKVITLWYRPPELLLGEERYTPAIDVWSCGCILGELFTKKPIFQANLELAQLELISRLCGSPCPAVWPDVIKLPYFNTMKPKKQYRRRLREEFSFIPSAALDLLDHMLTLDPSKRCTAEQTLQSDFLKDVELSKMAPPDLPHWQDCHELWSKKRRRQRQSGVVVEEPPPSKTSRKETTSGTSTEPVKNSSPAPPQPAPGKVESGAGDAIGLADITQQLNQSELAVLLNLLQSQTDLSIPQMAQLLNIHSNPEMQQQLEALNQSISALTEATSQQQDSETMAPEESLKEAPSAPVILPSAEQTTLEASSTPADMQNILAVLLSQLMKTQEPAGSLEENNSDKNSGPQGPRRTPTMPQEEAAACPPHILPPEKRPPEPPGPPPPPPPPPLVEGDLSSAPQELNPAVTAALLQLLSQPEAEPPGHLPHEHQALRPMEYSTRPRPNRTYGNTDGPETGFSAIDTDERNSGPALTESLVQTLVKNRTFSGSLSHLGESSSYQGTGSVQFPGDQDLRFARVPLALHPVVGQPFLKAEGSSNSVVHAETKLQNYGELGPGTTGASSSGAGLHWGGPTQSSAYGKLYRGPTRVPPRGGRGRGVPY
T1 sequence (O75909 whole entry partner): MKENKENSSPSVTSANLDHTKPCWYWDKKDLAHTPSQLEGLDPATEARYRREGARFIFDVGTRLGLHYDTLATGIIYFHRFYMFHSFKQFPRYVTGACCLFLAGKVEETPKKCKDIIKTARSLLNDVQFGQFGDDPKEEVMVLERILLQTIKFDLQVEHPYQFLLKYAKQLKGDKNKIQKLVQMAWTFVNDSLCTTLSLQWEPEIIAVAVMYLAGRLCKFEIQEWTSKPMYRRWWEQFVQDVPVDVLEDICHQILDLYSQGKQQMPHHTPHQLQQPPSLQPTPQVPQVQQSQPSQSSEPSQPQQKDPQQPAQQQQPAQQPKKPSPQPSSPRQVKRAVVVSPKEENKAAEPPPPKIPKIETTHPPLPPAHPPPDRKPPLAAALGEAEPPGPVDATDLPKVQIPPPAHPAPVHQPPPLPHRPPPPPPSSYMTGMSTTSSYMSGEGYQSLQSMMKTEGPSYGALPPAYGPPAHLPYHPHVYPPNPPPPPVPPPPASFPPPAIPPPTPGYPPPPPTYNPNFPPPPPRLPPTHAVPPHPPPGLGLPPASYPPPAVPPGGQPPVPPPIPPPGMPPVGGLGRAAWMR

For the compound `CN1CCN(c2nc(NCc3nc4c(OC(F)(F)F)cccc4[nH]3)n3ncc(Br)c3n2)CC1` [Example 376, 8-bromo-2-(4-methylpiperazin-1-yl)-N-{[4-(trifluoromethoxy)-1H-benzimidazol-2-yl]methyl}pyrazolo[1,5-a][1,3,5]triazin-4-amine], the IC50 on CDK12/CycK was greater than 20000 nM. Moreover, in experiment [1], the DC50 was 12.4 nM and the “(IC50 CDK12 high ATP) to (Degradation DC50 CDK12) ratio” value was greater than 1615.
The corresponding values for `FC(F)(F)c1cnn2c(NCc3nc4cc(Cl)c(Cl)cc4[nH]3)nc(N3CCOCC3)nc12` [Example 332, N-[(5,6-dichloro-1H-benzimidazol-2-yl)methyl]-2-(morpholin-4-yl)-8-(trifluoromethyl)pyrazolo[1,5-a][1,3,5]triazin-4-amine] are 190 nM, 10.7 nM and 18.
Taken in the same sequence, the figures for `CN1CCN(c2nc(NCc3nc4cc(F)c(F)cc4[nH]3)n3ncc(Br)c3n2)CC1` [Example 346, 8-bromo-N-[(5,6-difluoro-1H-benzimidazol-2-yl)methyl]-2-(4-methylpiperazin-1-yl)pyrazolo[1,5-a][1,3,5]triazin-4-amine] were 12200 nM, 2.35 nM and 5220.
Regarding `CN(CC(C)(C)O)c1nc(NCc2nc3cc(C(F)(F)F)ccc3[nH]2)n2ncc(C3CC3)c2n1` [Example 323, 1-{[8-cyclopropyl-4-({[5-(trifluoromethyl)-1H-benzimidazol-2-yl]methyl}amino)pyrazolo[1,5-a][1,3,5]triazin-2-yl](methyl)amino}-2-methylpropan-2-ol], the IC50 on CDK12/CycK is 2850 nM. In experiment [1], the DC50 worked out at 16.9 nM and the “(IC50 CDK12 high ATP) to (Degradation DC50 CDK12) ratio” value was determined as 169.
Taken in the same sequence, the figures for `Fc1cc2nc(CNc3nc(N4CCOCC4)nc4c(C(F)(F)F)cnn34)[nH]c2cc1F` [Example 333, N-[(5,6-difluoro-1H-benzimidazol-2-yl)methyl]-2-(morpholin-4-yl)-8-(trifluoromethyl)pyrazolo[1,5-a][1,3,5]triazin-4-amine] were 142 nM, 2.31 nM and 61.
Taken in the same sequence, the figures for `C[C@H]1CN(C)CCN1c1nc(NCc2nc3c(F)cccc3[nH]2)n2ncc(C(F)(F)F)c2n1` [Example 388, 2-[(2S)-2,4-dimethylpiperazin-1-yl]-N-[(4-fluoro-1H-benzimidazol-2-yl)methyl]-8-(trifluoromethyl)pyrazolo[1,5-a][1,3,5]triazin-4-amine] were 6840 nM, 10.4 nM and 655.
Taken in the same sequence, the figures for `Clc1cc2nc(CNc3nc(N4CC5CCC(C4)N5)nc4c(C5CC5)cnn34)[nH]c2cc1Cl` [Example 324, 8-cyclopropyl-2-(3,8-diazabicyclo[3.2.1]octan-3-yl)-N-[(5,6-dichloro-1H-benzimidazol-2-yl)methyl]pyrazolo[1,5-a][1,3,5]triazin-4-amine] were 859 nM, 18 nM and 48.
In the case of `Cc1cc2nc(CNc3nc(N(C)CC(C)(C)O)nc4c(Br)cnn34)[nH]c2cc1C` [Example 343, 1-[(8-bromo-4-{[(5,6-dimethyl-1H-benzimidazol-2-yl)methyl]amino}pyrazolo[1,5-a][1,3,5]triazin-2-yl)(methyl)amino]-2-methylpropan-2-ol], at CDK12/CycK, the IC50 came out at 188 nM. Further, in experiment [1], the DC50 was 3.56 nM and the “(IC50 CDK12 high ATP) to (Degradation DC50 CDK12) ratio” value was 53.
The corresponding values for `CN(c1nc(NCc2nc3ccccc3[nH]2)n2ncc(Br)c2n1)[C@H]1C[C@H](O)C1` [Example 365, trans-3-[(4-{[(1H-benzimidazol-2-yl)methyl]amino}-8-bromopyrazolo[1,5-a][1,3,5]triazin-2-yl)(methyl)amino]cyclobutan-1-ol] are 5850 nM, 23.6 nM and 247.
For `FC(F)(F)c1ccc2[nH]c(CNc3nc(N4CC5CCC(C4)N5)nc4c(Br)cnn34)nc2c1` [Example 354, 8-bromo-2-(3,8-diazabicyclo[3.2.1]octan-3-yl)-N-{[5-(trifluoromethyl)-1H-benzimidazol-2-yl]methyl}pyrazolo[1,5-a][1,3,5]triazin-4-amine], at CDK12/CycK, the IC50 worked out at 3740 nM. Also, in experiment [1], the DC50 came out at 71.3 nM and the “(IC50 CDK12 high ATP) to (Degradation DC50 CDK12) ratio” value was found to be 52.
On to `Fc1c(Cl)ccc2[nH]c(CNc3nc(N4CC5CCC(C4)N5)nc4c(C5CC5)cnn34)nc12` [Example 379, N-[(5-chloro-4-fluoro-1H-benzimidazol-2-yl)methyl]-8-cyclopropyl-2-(3,8-diazabicyclo[3.2.1]octan-3-yl)pyrazolo[1,5-a][1,3,5]triazin-4-amine], for which the IC50 on CDK12/CycK came to 528 nM. Moreover, in experiment [1], the DC50 turned out to be 4.35 nM and the “(IC50 CDK12 high ATP) to (Degradation DC50 CDK12) ratio” value came out at 121.
Taken in the same sequence, the figures for `CN(CC(C)(C)O)c1nc(NCc2nc3cc(F)c(Cl)cc3[nH]2)n2ncc(Br)c2n1` [Example 338, 1-[(8-bromo-4-{[(6-chloro-5-fluoro-1H-benzimidazol-2-yl)methyl]amino}pyrazolo[1,5-a][1,3,5]triazin-2-yl)(methyl)amino]-2-methylpropan-2-ol] were 1180 nM, 0.894 nM and 1320.
For the compound `Brc1cnn2c(NCc3nc4ccccc4[nH]3)nc(N3CC4CCC(C3)O4)nc12` [Example 351, N-[(1H-benzimidazol-2-yl)methyl]-8-bromo-2-(8-oxa-3-azabicyclo[3.2.1]octan-3-yl)pyrazolo[1,5-a][1,3,5]triazin-4-amine], at CDK12/CycK, the IC50 was 9350 nM. Also, in experiment [1], the DC50 was determined as 24 nM and the “(IC50 CDK12 high ATP) to (Degradation DC50 CDK12) ratio” value was determined as 390.
Taken in the same sequence, the figures for `Cc1cc2nc(CNc3nc(N4CC5CCC(C4)N5)nc4c(Br)cnn34)[nH]c2cc1C` [Example 353, 8-bromo-2-(3,8-diazabicyclo[3.2.1]octan-3-yl)-N-[(5,6-dimethyl-1H-benzimidazol-2-yl)methyl]pyrazolo[1,5-a][1,3,5]triazin-4-amine] were 2520 nM, 12.4 nM and 203.
Turning to `Cc1cc2nc(CNc3nc(N4CCOCC4)nc4c(C5CC5)cnn34)[nH]c2cc1C` [Example 320, 8-cyclopropyl-N-[(5,6-dimethyl-1H-benzimidazol-2-yl)methyl]-2-(morpholin-4-yl)pyrazolo[1,5-a][1,3,5]triazin-4-amine], the IC50 at CDK12/CycK came to 557 nM. For the same compound, in experiment [1], the DC50 stood at 4.28 nM and the “(IC50 CDK12 high ATP) to (Degradation DC50 CDK12) ratio” value is listed as 130.
The corresponding values for `Cc1cc2nc(CNc3nc(N(C)CC(C)(C)O)nc4c(C5CC5)cnn34)[nH]c2cc1C` [Example 321, 1-[(8-cyclopropyl-4-{[(5,6-dimethyl-1H-benzimidazol-2-yl)methyl]amino}pyrazolo[1,5-a][1,3,5]triazin-2-yl)(methyl)amino]-2-methylpropan-2-ol] are 416 nM, 6.23 nM and 67.
Taken in the same sequence, the figures for `Fc1c(Cl)ccc2[nH]c(CNc3nc(N4CC5CCC(C4)N5)nc4c(Br)cnn34)nc12` [Example 380, 8-bromo-N-[(5-chloro-4-fluoro-1H-benzimidazol-2-yl)methyl]-2-(3,8-diazabicyclo[3.2.1]octan-3-yl)pyrazolo[1,5-a][1,3,5]triazin-4-amine] were 1020 nM, 2.32 nM and 438.
The corresponding values for `CC(C)c1cnn2c(NCc3ncc(-c4ccccc4)[nH]3)nc(N3CCN(C)CC3)nc12` [Example 31, 2-(4-methylpiperazin-1-yl)-N-[(5-phenyl-1H-imidazol-2-yl)methyl]-8-(propan-2-yl)pyrazolo[1,5-a][1,3,5]triazin-4-amine] are 13600 nM, 19.7 nM and 689.
Take `CN(CC(C)(C)O)c1nc(NCc2nc3cc(OC(F)(F)F)ccc3[nH]2)n2ncc(Br)c2n1` [Example 378, 1-{[8-bromo-4-({[5-(trifluoromethoxy)-1H-benzimidazol-2-yl]methyl}amino)pyrazolo[1,5-a][1,3,5]triazin-2-yl](methyl)amino}-2-methylpropan-2-ol]: on CDK12/CycK, the IC50 came out at 440 nM. In addition, in experiment [1], the DC50 came to 29.1 nM and the “(IC50 CDK12 high ATP) to (Degradation DC50 CDK12) ratio” value is recorded as 15.
`Fc1cc2nc(CNc3nc(N4CC5CCC(C4)N5)nc4c(Br)cnn34)[nH]c2cc1F` [Example 355, 8-bromo-2-(3,8-diazabicyclo[3.2.1]octan-3-yl)-N-[(5,6-difluoro-1H-benzimidazol-2-yl)methyl]pyrazolo[1,5-a][1,3,5]triazin-4-amine]: on CDK12/CycK, the IC50 was 4180 nM. Moreover, in experiment [1], the DC50 was found to be 23.5 nM and the “(IC50 CDK12 high ATP) to (Degradation DC50 CDK12) ratio” value was 178.
On to `CN(CC(C)(C)O)c1nc(NCc2nc3cc(Cl)c(Cl)cc3[nH]2)n2ncc(Br)c2n1` [Example 331, 1-[(8-bromo-4-{[(5,6-dichloro-1H-benzimidazol-2-yl)methyl]amino}pyrazolo[1,5-a][1,3,5]triazin-2-yl)(methyl)amino]-2-methylpropan-2-ol], for which the IC50 on CDK12/CycK is 350 nM. Besides, in experiment [1], the DC50 came out at 6 nM and the “(IC50 CDK12 high ATP) to (Degradation DC50 CDK12) ratio” value stood at 58.

Values taken from patent US20230117034A1, “PYRAZOLOTRIAZINES” (Bayer Aktiengesellschaft, priority 2019, published 2023).
